Assay results published in patent US20220112237A1, “AMINO ACID COMPOSITION HAVING CO-AMORPHOUS STRUCTURE” (AJINOMOTO CO., INC., priority 2019, published 2022).

Columns and labels:
[1] = Confirmation of formation of amorphous product by powder X-ray diffraction; assay type: physicochemical; conditions: Cys2 with Arg or Cys2 alone, ball mill as Example 1, 30° C., FIG. 6
Method: The solid powder obtained in (1) was measured by the powder X-ray diffraction apparatus (“Empyrean”, manufactured by Malvern Panalytical), and the powder X-ray diffraction patterns of the solid were obtained. In the drawing, line a represents the pattern of the mixture at time zero, line b represents time zero plus 4 hours, and line c represents time zero plus 12 hours. As a result, a well-defined peak characteristic of crystal structure was not found. From this, it was confirmed that the solid obtained in (1) was amorphous.
The solid obtained in (1) was measured by the same powder X-ray diffraction apparatus as Example 1, and the powder X-ray diffraction patterns of the solid are shown in FIG. 4.
The solid obtained in (1) was measured by the same powder X-ray diffraction apparatus as Example 1, and the powder X-ray diffraction patterns were obtained. […]
The solid obtained in (1) was measured by the same powder X-ray diffraction apparatus as Example 1, and the powder X-ray diffraction patterns of the solid are shown in FIG. 7.
The solid obtained in (1) was measured by the same powder X-ray diffraction apparatus as Example 1, and the powder X-ray diffraction patterns of the solid are shown in FIG. 8.
The solid obtained in (1) was measured by the same powder X-ray diffraction apparatus as Example 1, and the powder X-ray diffraction patterns of the solid are shown in FIG. 9. […]

[2] = Test to confirm the dissolved amount (Tyr concentration of supernatant by HPLC); assay type: physicochemical; conditions: 130 mg in 100 mL water, pH 6.5-7.5, 25° C., stirred, after 24 hours
Method: […] After the powder was dissolved completely, the pH was adjusted using 5 mol/L hydrochloric acid to be within the range of 6.5-7.5. Bottles A-D were immersed in a water bath (“NCG-3300”, manufactured by Tokyo Rikakikai Co., Ltd.) at 25° C., and bottles A and C were stirred by the magnetic stirrer, and bottles B and D were allowed to stand without stirring. After 2 hours, 2 mL was sampled from each bottle, and filtered using a 0.45 μm filter (“Millex”, Merck). The filtered sample was diluted 50 times, and the Tyr concentration of the supernatant was determined using high-performance liquid chromatography (HPLC) (“1100 Series”, manufactured by Agilent).
The above process was conducted again after 24 hours, 48 hours, and 333 hours. In the drawing, ◯, Δ, ● and ▴ represent A (stirred, 138 mg), B (allowed to stand, 138 mg), C (stirred, 220 mg) and D (allowed to stand, 220 mg), respectively. […]
After 5 minutes, 10 minutes, 30 minutes, 1 hour, 2 hours, 24 hours, and 168 hours from the start of stirring, 2 mL was sampled from each sample bottle, and filtered using the 0.45 […] filter (“Millex”, Merck). The filtered sample was diluted 50 times, and the Tyr concentration of the supernatant was determined using the high-performance liquid chromatography (HPLC) (“1100 Series”, manufactured by Agilent).

Row | Compound | Formation of amorphous product after pulverization [1] | Tyr concentration of the supernatant [2]
1 | N[C@@H](CSSC[C@H](N)C(=O)O)C(=O)O [compound 7, Cystine] | the crystal property remained | –
2 | N[C@@H](Cc1ccc(O)cc1)C(=O)O [Tyr crystal, tyrosine] | – | 430 mg/L
